Data on three molecules can be found in paper PMC8304610, “Discovery of Novel 2,4-Dianilinopyrimidine Derivatives Containing 4-(Morpholinomethyl)phenyl and N-Substituted Benzamides as Potential FAK Inhibitors and Anticancer Agents” (Molecules, 2021).

Series [1] concerns A431 human epithelial carcinoma cells. Briefly: CCK-8 cell viability assay, A431. The series is classed as cell-based. Conditions: A-431, CCK-8, 72 h, mean ± SD of three experiments, read-out: Antiproliferative Activity IC50, A431. Here is the method: (§1) The H1975 human NSCLC cell line was obtained from ATCC. A431 human epithelial carcinoma and HBE human bronchial epithelial cell lines were kind gifts from Fuheng Biological Company Ltd. (Shanghai, China) and YuXi Biotech Company (Jiangsu, China), respectively. The cells were maintained in RPMI 1640 or DMEM (Gibco®, Thermo Fisher Scientific Inc., Waltham, MA, USA) containing 10% fetal bovine serum (FBS, Gibco®) and 1% penicillin-streptomycin (Beyotime Company, Shanghai, China) at 37 °C in a 5% CO2 incubator.
(§2) A total of 3000 cells of H1975 or HBE and 5000 cells of A431 were seeded for each well into a 96-well plate and cultured in 10% FBS respective growth medium overnight. Various concentrations (0–20 μM) of each compound were then added in triplicate to the cells. After 72 h of incubation, 10 μL of CCK-8 solution (5.0 mg/mL, Biotool Company, Kirchberg, Switzerland) was added to each well and the cells continued to culture for 4 h. The optical density (OD) was determined at 450 nm with a microplate reader (Thermo Fisher Scientific, Waltham, MA, USA). IC50 values were calculated employing GraphPad Prism version 8.0.

The test system of series [2] is normal human bronchial epithelial cells (HBE). Nature of the series: CCK-8 cellular selectivity assay, HBE. Particulars: for IC50: Homo sapiens, Epithelial cell, HBE normal cells, CCK-8, 72 h, mean ± SD of three experiments, read-out: Antiproliferative Activity IC50, HBE; for SI Values (selectivity index): IC50 for HBE cell line/IC50 for H1975 cell line. The series is classed as cell-based. The protocol: as §1, §2

Series [3] has as its system H1975 non-small cell lung cancer (NSCLC) cells. Briefly: CCK-8 cell viability assay, H1975. Particulars: Homo sapiens, NCI-H1975, CCK-8, 72 h, mean ± SD of three experiments, read-out: Antiproliferative Activity IC50, H1975. In kind it is cell-based. The protocol:
as §1, §2

For series [4], the system named is H1975 cells. Briefly: Scratch (cell migration) assay. In kind it is cell-based, human. Particulars: H1975, 0.1, 0.5, and 1 μM, 24 h. The protocol:
H1975 cells were seeded in 6-well plates and incubated for 12 h. When cells were grown to 90–100% confluency in a monolayer, wounds were generated using a pipette tip. […] The images were captured to record the status of cells near the scratch lines at the beginning and after 12 and 24 h.

In series [5] the test system is H1975 cells. Nature of the series: AO/EB staining assay. The series is classed as cell-based, human. Conditions: H1975, 0.1, 0.5, and 1 μM. Here is the method: H1975 cells at a density of 1 × 10^5 cells/well in 6-well plates were incubated for 24 h. After discarding the original culture medium, different concentrations of inhibitors were used. The cells were incubated for 48 h and then washed with phosphate-buffered saline (PBS) three times. Cells were subsequently incubated in the dye mix containing 1.0 µg/mL of AO and 1.0 µg/mL of EB in PBS at 37 °C for 5 min, and then washed with PBS. The apoptotic, necrotic, and live cells were examined under the fluorescent inverted microscope (OLYMPUS, Tokyo, Japan).

Series [6] has as its system H1975 cells. Briefly: Annexin V-FITC/PI flow cytometry apoptosis assay. In kind it is cell-based, human. Conditions: H1975, 0.1, 0.5, 1 μM, 48 h. Here is the method:
(§3) H1975 cells were seeded at a density of 1 × 10^5 cells/well into 6-well plates for 24 h and then exposed to different concentrations of inhibitors for 48 h. The cells were harvested. (1) The cells were stained with Annexin V-FITC (5 µL)/propidium iodide (5 µL), and the samples were detected and flow cytometry (Becton-Dickinson, Franklin Lakes, NJ, USA) was performed to quantify the number of apoptotic cells. (2) The cells were stained with propidium iodide (PI) in the dark for 30 min, and then analyzed for cell cycle distribution by the flow cytometry assay.

The next series has as its target T1, FAK kinase (Homo sapiens, UniProt Q05397).
T1 construct: purchased Promega Corporation V9301
Nature of the series: ADP-Glo kinase enzymatic assay. In kind it is biochemical. Conditions: mean ± SD of three independent experiments. The protocol: The ADP-Glo™ Kinase Assay Kit and FAK Kinase Enzyme (Catalog. V9301) were purchased from Promega Corporation (Madison, WI, USA). The experiments were performed according to the detailed and complete protocols of the manufacturer. Briefly, the concentration of FAK determined by optimization experiments was 0.1 μg/μL. Suitable concentration gradients from 1.6 to 1000 nM were set for all the tested compounds. A kinase reaction buffer, a substrate/ATP mixture, and a FAK solution were prepared right before use. The 5 μL kinase reaction consisted of 1 μL of compound solution, 2 μL of substrate/ATP mixture, and 2 μL of FAK solution. The control without enzyme was provided by 3 μL of kinase reaction buffer and 2 μL of substrate/ATP mixture. The negative control was prepared using 1 μL of kinase reaction buffer instead of a compound solution. The kinase reactions were added to a 384-well plate and incubated at room temperature for 60 min, then 5 μL of ADP-Glo™ Reagent was added to stop the kinase reaction and deplete the unconsumed ATP, and incubated at room temperature for 40 min. After adding 10 μL of Kinase Detection Reagent, the plate was incubated at room temperature for 30 min and then luminescence was recorded (integration time 0.5–1 s) on a TriStar® LB942 Multimode Microplate Reader (BERTHOLD TECHNOLOGIES GmbH & Co. KG., Bad Wildbad, Germany). Curve fitting and data presentations were performed using GraphPad Prism version 8.0.

Series [7] relates to H1975 cells. Briefly: Cell cycle analysis by PI flow cytometry. In kind it is cell-based, human. Conditions: 48 h. The protocol:
as §3

T1 sequence (Q05397 393-698 limits assumed): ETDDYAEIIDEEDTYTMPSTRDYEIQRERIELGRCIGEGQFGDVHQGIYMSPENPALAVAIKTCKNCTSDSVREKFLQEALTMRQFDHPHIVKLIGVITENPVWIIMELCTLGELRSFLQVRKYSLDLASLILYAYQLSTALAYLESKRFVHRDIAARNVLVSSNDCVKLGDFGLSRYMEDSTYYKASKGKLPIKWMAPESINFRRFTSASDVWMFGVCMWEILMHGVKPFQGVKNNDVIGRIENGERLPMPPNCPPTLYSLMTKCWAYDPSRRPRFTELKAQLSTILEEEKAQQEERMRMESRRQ

On to `CNC(=O)c1ccccc1Nc1nc(Nc2ccc(N3CCOCC3)cc2OC)ncc1Cl` [TAE226, reference compound], for which the IC50 in series [1] is 392 ± 53 nM; in series [2], more than 20000 nM; in series [3], 141 ± 41 nM. In addition, in the series on H1975 cells [4], the “Cell migration (in words)” value was “reduced migration distances”.

Consider `O=C(NCCO)c1ccccc1Nc1nc(Nc2ccc(CN3CCOCC3)cc2)ncc1Cl` [Compound 8a, 2-((5-Chloro-2-((4-(morpholinomethyl)phenyl)amino)pyrimidin-4-yl)amino)-N-(2-hydroxyethyl)benzamide], for which the “Apoptotic morphology (in words)” value with H1975 cells [5] is “exhibited certain morphological phenomena characteristic of apoptosis”. In addition, the 50% inhibitory concentration (IC50) in series [1] was 119 ± 36 nM; in [2], 1040 ± 266 nM; against FAK kinase, 47 ± 6 nM; in series [3], 44 ± 11 nM. The “Apoptosis induction (in words)” value with H1975 cells [6] is recorded as “substantially increased the extent of apoptosis in H1975 cells in a dose-dependent manner”. Moreover, in series [2], the “SI Values (selectivity index)” value was found to be 24. In the series on H1975 cells [7] (H1975, 1.0 μM), the “%G1 (G0/G1 phase) cells” value worked out at 39.06%. The “%G2 (G2/M phase) cells” value in the series with H1975 cells [7] (H1975, 1.0 μM) is listed as 37.29%. For the same molecule, the “%S phase cells” value in the series on H1975 cells [7] (H1975, 1.0 μM) is reported as 23.65%. Further, the “Cell cycle arrest (in words)” value with H1975 cells [7] (H1975, 0.1, 0.5, and 1 μM) is “induced cell cycle arrest in S/G2 phase in a dose-dependent manner”. Besides, in the series with H1975 cells [4], the “Cell migration (in words)” value is listed as “reduced migration distances”.

For the molecule `O=C(c1ccccc1Nc1nc(Nc2ccc(CN3CCOCC3)cc2)ncc1Cl)N1CCC(Oc2no[n+]([O-])c2S(=O)(=O)c2ccccc2)CC1` [Compound 9e, 4-((1-(2-((5-Chloro-2-((4-(morpholinomethyl)phenyl)amino)pyrimidin-4-yl)amino)benzoyl)piperidin-4-yl)oxy)-3-(phenylsulfonyl)-1,2,5-oxadiazole 2-oxide], the melting point is 130 to 132 °C. In series [1], the IC50 was 2410 ± 587 nM. In series [2], the IC50 stood at 763 ± 100 nM and the “SI Values (selectivity index)” value worked out at 0.4. In addition, at FAK kinase, the IC50 is more than 1000 nM. For the same molecule, the half-inhibitory concentration (IC50) in series [3] is 1720 ± 295 nM.
